Patent publication US20100160295A1, “TREATMENT OF RESTLESS LEG SYNDROME AND SLEEP DISORDERS” (SYNOSIA THERAPEUTICS, priority 2008, published 2010)

Columns and labels:
Subjects with RLS = test: Medical Outcomes Study (MOS) Sleep Scale, placebo-controlled study in RLS subjects; format: in vivo, human
Description: (§1) The study multi-centre, randomized, double-blind, parallel-groups, placebo-controlled study with 2 treatment arms, oral HPPD inhibitor (2-(2-nitro-4-trifluoromethylbenzoyl)-1,3-cyclohexanedione) and placebo. Subjects were randomized to either treatment with an HPPD inhibitor or placebo in a 2:1 ratio. The subjects were dosed with 4 mg on day 1, and 2 mg/day on days 2-14. The total duration of treatment with study drug for each subject was 14 consecutive days ending at the day of the final sleep lab assessment (Day 14), with a follow-up examination 29 days after Baseline.
(§2) Efficacy parameters were changes between Baseline and end of treatment in objective measures of Periodic Limb Movements (PLM) and sleep efficiency and in investigator evaluations of severity of RLS symptoms as well as in subject's report on severity of RLS symptoms, sleep disturbances and depressive feelings. Parameters measured included: • Periodic Limb Movement (PLM) Index, defined as the number of PLM events occurring during time-in-bed (PLMI/h TIB) • Periodic Limb Movements during Sleep Index, defined as the number of PLMs per hour of total sleep time (PLMSI/h TST) • PLM arousal index, defined as the number of PLM with arousals per hour of total sleep time (PLMSAI/h TST) • Periodic Limb Movements during wakefulness index, defined as the number of PLMs per hour occurring during wakefulness within time-in-bed (PLMWI/h TIB) • Sleep Efficiency (SE) expressed as the percentage total sleep time (TST) of total time in bed (TIB) • Total Sleep Time (TST) • Total number of arousals per TST • Sleep latency • Restless Legs Scale—6 items (RLS-6) (Kohnen et al, 2004) • IRLS total score change from start of treatment to end • Time to requiring rescue medication (defined as time to dropout due to the need of rescue medication for intolerable RLS symptoms) • Physicians' Global Impression, rated by the Clinical Global Impressions Scale (CGI): severity, change and treatment effect • CGI responders defined as the proportion of subjects who improved “much” or “very much” on CGI item “change”. • Patients' Global Impression (PGI) scale Item 1 (efficacy) • Medical Outcomes Study (MOS) Sleep Scale • Beck Depression Inventory (BDI) • In addition, a patient diary was to be completed between days 8 and 15 • HPPD inhibitor plasma concentrations at Baseline, end of treatment and follow-up • Tyrosine plasma concentration at Baseline, end of treatment and follow-up.
Subjects with RLS received either placebo (7 subjects) or an HPPD inhibitor (13 subjects) given as 4 mg on day 1, then 2 mg per day for days 2-14 of the trial. Various parameters relevant to RLS were monitored during the course of treatment, in particular the quality of their sleep patterns using a standard assessment scale (Medical Outcomes Study (MOS) Sleep Scale). Individuals were asked to complete a standard evaluation of their ‘normal’ sleep experience at the start of the trial (Baseline) and again at the end of treatment (EoT), with the various parameters scored according to the attached document.
The MOS Sleep Scale is a comprehensive subject completed sleep questionnaire consisting of 12 items (Hays and Stewart, 1992; Hays et al., 2005). Each item measures a unique aspect or characteristic of sleep. Overall, the MOS Sleep Scale measures the following:
All items, except for item 2, were transformed in a ‘0-100’ scale.
For the analysis of the MOS sleep scale, the following subscales were determined as means of the involved items (in part, after reversing the ratings in the ‘0-100’ scale, denoted by (R) in the item sequence):
Subjects self-reported the length of time it took for them to fall asleep and the average number of hours of sleep each night. Scores for all other items range from 1 (all of the time) to 6 (none of the time).
The MOS Sleep Scale was completed at Baseline (Visit 2) and final examination (Visit 3).

[1] = tested on: moderate to severe idiopathic RLS subjects; test: IRLS scale, placebo-controlled study in RLS subjects; format: in vivo, human
Description: as §1
(§3) The objective of this exploratory study was to show proof-of-concept of therapy with an exemplary HPPD inhibitor in moderate to severe idiopathic RLS subjects.
as §2

[2] = tested on: moderate to severe idiopathic RLS subjects; test: Restless Legs Scale - 6 items (RLS-6); format: in vivo, human
Description: as §1, §3
(§4) Efficacy parameters were changes between Baseline and end of treatment in objective measures of Periodic Limb Movements (PLM) and sleep efficiency and in investigator evaluations of severity of RLS symptoms as well as in subject's report on severity of RLS symptoms, sleep disturbances and depressive feelings. […]

[3] = tested on: moderate to severe idiopathic RLS subjects; test: Beck Depression Inventory (BDI); format: in vivo, human
Description: as §1, §3, §4

[4] = tested on: moderate to severe idiopathic RLS subjects; test: Clinical Global Impressions Scale (CGI): severity, change and treatment effect; format: in vivo, human
Description: as §1, §3, §2

[5] = tested on: moderate to severe idiopathic RLS subjects; test: Patients' Global Impression (PGI) scale Item 1 (efficacy); format: in vivo, human
Description: as §1, §3, §4

[6] = tested on: moderate to severe idiopathic RLS subjects; test: Patient diary of RLS symptoms; format: in vivo, human
Description: as §1, §3, §2

[7] = tested on: moderate to severe idiopathic RLS subjects; test: PSG measurements, Periodic Limb Movement (PLM) index; format: in vivo, human; details: log-transformed values on PSG measurements
Description: as §1, §3, §4

[8] = Plasma level of HPPD inhibitor and plasma tyrosine at steady state, 2 mg QD vs. 2 mg Q2D (FIG. 3); format: in vivo
Description: FIG. 3 is a graphical comparison of the mean plasma level of an exemplary HPPD inhibitor with plasma tyrosine at steady state following 2 mg QD vs. 2 mg Q2D dosing.
FIG. 3 provides an example of plasma tyrosine levels which are essentially identical and independent of whether the HPPD inhibitor is administered once a day or once every two days.

[9] = EoT Visit, M-ITT, none of the placebo patients
[10] = EoT, PPS n = 13, 4 mg day 1, 2 mg/day days 2-14
[11] = EoT, PPS n = 13, item 2 raw scores
[12] = M-ITT, HPPD inhibitor vs placebo
[13] = change from Baseline to EoT, PPS n = 13

## O=C1CCCC(=O)C1C(=O)c1ccc(C(F)(F)F)cc1[N+](=O)[O-] [HPPD Inhibitor, 2-(2-nitro-4-trifluoromethylbenzoyl)-1,3-cyclohexanedione]
Subjects with RLS; [9]
  patients reporting optimal sleep (7-8 hours), number: 5 patients
  patients reporting optimal sleep (7-8 hours), percentage: 35.7%
Subjects with RLS; EoT Visit, PPS
  patients reporting optimal sleep (7-8 hours), number: 4 patients
Subjects with RLS; EoT, PPS n = 13
  MOS Short of Breath Scale, absolute, Median: 0.0
  MOS Short of Breath Scale, absolute, Range: 0.0-40.0
  MOS Sleep Adequacy Scale, absolute, Median: 50.0
  MOS Sleep Adequacy Scale, absolute, Range: 0.0-80.0
  MOS Sleep Problems Index I, absolute, Median: 33.3
  MOS Sleep Problems Index I, absolute, Range: 10.0-70.0
  MOS Sleep Problems Index II, absolute, Median: 32.8
  MOS Sleep Problems Index II, absolute, Range: 11.1-74.4
  MOS Snoring Scale, absolute, Median: 20.0
  MOS Snoring Scale, absolute, Range: 0.0-40.0
  MOS Somnolence Scale, absolute, Median: 13.3
  MOS Somnolence Scale, absolute, Range: 6.7-66.7
Subjects with RLS; [10]
  MOS Short of Breath Scale, absolute, M ± SD: 9.2 ± 15.5
  MOS Sleep Disturbance Scale, absolute, Median: 43.8
  MOS Sleep Disturbance Scale, absolute, Range: 10.0-72.5
  MOS Sleep Problems Index I, absolute, M ± SD: 36.7 ± 16.3
  MOS Sleep Problems Index II, absolute, M ± SD: 37.9 ± 16.8
  MOS Snoring Scale, absolute, M ± SD: 20.0 ± 16.3
  MOS Somnolence Scale, absolute, M ± SD: 24.6 ± 19.7
Subjects with RLS; EoT, PPS n = 13, 4 mg day 1, 2 mg/day days 2-14, 0-100 scale, higher = stronger sleep problems
  MOS Sleep Disturbance Scale, absolute, M ± SD: 41.8 ± 16.7
Subjects with RLS; EoT, PPS n = 13, 4 mg day 1, 2 mg/day days 2-14, higher values = better
  MOS Sleep Adequacy Scale, absolute, M ± SD: 46.9 ± 25.9
Subjects with RLS; [11]
  MOS Sleep Quantity, absolute, Median: 6.0 h
  MOS Sleep Quantity, absolute, Range: 4.0 to 8.0 h
Subjects with RLS; EoT, PPS n = 13, item 2 raw scores, 4 mg day 1, 2 mg/day days 2-14
  MOS Sleep Quantity, absolute, M ± SD: 6.1 ± 1.0 h
Subjects with RLS; M-ITT, 95%-CI: 1.30, 52.64, p=0.0405 two-sided from ANCOVA
  MOS sleep adequacy: difference HPPD inhibitor—placebo, LS mean: 26.97
Subjects with RLS; M-ITT, 95%-CI: −35.53, 0.93, p=0.0616 two-sided from ANCOVA
  MOS sleep disturbance: difference HPPD inhibitor—placebo, LS mean: −17.30
Subjects with RLS; M-ITT, 95%-CI: −36.18, 2.61, p=0.0857 two-sided from ANCOVA
  MOS sleep problems index II: difference HPPD inhibitor—placebo, LS mean: −16.78
Subjects with RLS; M-ITT, 95%-CI: −37.80, 0.31, p=0.0534 two-sided from ANCOVA
  MOS sleep problems index I: difference HPPD inhibitor—placebo, LS mean: −18.75
Subjects with RLS; [12]
  MOS sleep adequacy: effect size d: 0.50
  MOS sleep disturbance: effect size d: 0.55
  MOS sleep problems index I: effect size d: 0.54
  MOS sleep problems index II: effect size d: 0.41
Subjects with RLS; [13]
  MOS Short of Breath Scale, change, M ± SD: −7.7 ± 19.2
  MOS Short of Breath Scale, change, Median: 0.0
  MOS Short of Breath Scale, change, Range: −40.0-20.0
  MOS Sleep Adequacy Scale, change, M ± SD: 26.9 ± 35.5
  MOS Sleep Adequacy Scale, change, Median: 30.0
  MOS Sleep Adequacy Scale, change, Range: −50.0-80.0
  MOS Sleep Disturbance Scale, change, M ± SD: −35.0 ± 27.5
  MOS Sleep Disturbance Scale, change, Median: −46.3
  MOS Sleep Disturbance Scale, change, Range: −68.8-11.3
  MOS Sleep Problems Index I, change, M ± SD: −23.8 ± 20.3
  MOS Sleep Problems Index I, change, Median: −20.0
  MOS Sleep Problems Index I, change, Range: −60.0-3.3
  MOS Sleep Problems Index II, change, M ± SD: −25.5 ± 19.9
  MOS Sleep Problems Index II, change, Median: −23.9
  MOS Sleep Problems Index II, change, Range: −61.7-−1.7
  MOS Sleep Quantity, change, M ± SD: 1.8 ± 1.1 h
  MOS Sleep Quantity, change, Median: 2.0 h
  MOS Sleep Quantity, change, Range: 0.0 to 3.0 h
  MOS Snoring Scale, change, M ± SD: −6.2 ± 15.0
  MOS Snoring Scale, change, Median: 0.0
  MOS Snoring Scale, change, Range: −40.0-20.0
  MOS Somnolence Scale, change, M ± SD: −10.3 ± 16.0
  MOS Somnolence Scale, change, Median: −13.3
  MOS Somnolence Scale, change, Range: −33.3-13.3
[1]; Baseline to EoT, M-ITT, 95%-CI: −9.75, 2.84, p=0.2636
  IRLS severity score: difference drug-placebo, LS mean: −3.46
[1]; Baseline to EoT, not seen for IRLS impact score
  IRLS total score, difference vs placebo: numerical differences between Baseline and EoT favouring
[1]; EoT, M-ITT, placebo 2
  subjects reporting only mild or moderate RLS symptoms (IRLS scale), number: 9 subjects
[1]; EoT, M-ITT, placebo 28.6%
  subjects reporting only mild or moderate RLS symptoms (IRLS scale), percentage: 64.3%
[2]; Baseline to EoT
  RLS-6, all subscales: median (mean) differences between Baseline and EoT vs placebo: more benefit than those treated with placebo
[2]; M-ITT, 95%-CI: −4.52, 0.97, p=0.1910 two-sided from ANCOVA
  RLS-6 RLS symptoms during the night: difference drug-placebo, LS mean: −1.77
[2]; M-ITT, 95%-CI: −5.24, −0.01, p=0.0494 two-sided from ANCOVA
  RLS-6 RLS symptoms when falling asleep: difference drug-placebo, LS mean: −2.62
[3]
  depressive symptoms, mean differences between Baseline and EoT vs placebo: larger reduction of depressive symptoms
[4]; EoT
  CGI severity item, improvement vs placebo: larger improvement
[4]; EoT, M-ITT
  CGI severity: subjects not at all or only borderline ill, percentage: 21.4%
[4]; EoT, M-ITT, none on placebo
  CGI severity: subjects not at all or only borderline ill, number: 3 subjects
[4]; EoT, M-ITT, placebo 5
  CGI severity: subjects with moderate to severe illness, number: 7 subjects
[4]; EoT, M-ITT, placebo 71.4%
  CGI severity: subjects with moderate to severe illness, percentage: 50.0%
[4]; M-ITT, placebo 2
  CGI change of condition: subjects very much or much improved (responder analysis), number: 7 subjects
[4]; M-ITT, placebo 28.6%
  CGI change of condition: subjects very much or much improved (responder analysis), percentage: 50.0%
[4]; placebo 3
  CGI treatment effect rated as very good or moderate, number of subjects: 8 subjects
[4]; placebo 42.9%
  CGI treatment effect rated as very good or moderate, percentage of subjects: 57.1%
[5]; placebo 2
  PGI: subjects who assessed their therapy as efficacious, number: 7 subjects
[5]; placebo 28.6%
  PGI: subjects who assessed their therapy as efficacious, percentage: 50.0%
[6]; M-ITT, 95%-CI: −2.52, −0.04, p=0.0437 two-sided from ANCOVA
  patient diary, RLS symptoms during the day when active: difference drug-placebo, LS mean: −1.28
[6]; M-ITT, 95%-CI: −4.87, −0.27, p=0.0304 two-sided from ANCOVA
  patient diary, RLS symptoms during the day: difference drug-placebo, LS mean: −2.57
[6]; M-ITT, 95%-CI: −5.15, −0.13, p=0.0402 two-sided from ANCOVA
  patient diary, RLS symptoms when falling asleep: difference drug-placebo, LS mean: −2.64
[6]; vs placebo
  patient diary, improvement of RLS symptoms during the night and during the day at rest, or during inactivity: Trends were found
[7]
  PLM index values, improvement as compared to placebo: slightly larger improvement
[8]; 2 mg once a day vs 2 mg once in 2 days
  steady state plasma tyrosine levels, once a day vs once in two days: substantially similar
[8]; 2 mg once in 2 days vs 2 mg once a day, steady state
  plasma levels of the HPPD inhibitor, once in two day regimen vs once a day: lower
